The target of one assay is ACC2 (Homo sapiens, UniProt O00763). Description: In vitro ACC2 inhibition assay (ADP-Glo). The format is biochemical. As to conditions: read-out: ACC2. In a few lines: (§1)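 Enzyme (human ACC1 or ACC2) and compound, serially diluted 1:3 over 11 points from a 600 uM DMSO stock, were preincubated 15 min before substrate addition.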
The next assay deals with ACC1 (Homo sapiens, UniProt Q13085). Description: In vitro ACC1 inhibition assay (ADP-Glo). Format: biochemical. The settings on record: read-out: ACC1. The essentials:
as §1

ACC2, sequence (O00763 whole entry, species assumed): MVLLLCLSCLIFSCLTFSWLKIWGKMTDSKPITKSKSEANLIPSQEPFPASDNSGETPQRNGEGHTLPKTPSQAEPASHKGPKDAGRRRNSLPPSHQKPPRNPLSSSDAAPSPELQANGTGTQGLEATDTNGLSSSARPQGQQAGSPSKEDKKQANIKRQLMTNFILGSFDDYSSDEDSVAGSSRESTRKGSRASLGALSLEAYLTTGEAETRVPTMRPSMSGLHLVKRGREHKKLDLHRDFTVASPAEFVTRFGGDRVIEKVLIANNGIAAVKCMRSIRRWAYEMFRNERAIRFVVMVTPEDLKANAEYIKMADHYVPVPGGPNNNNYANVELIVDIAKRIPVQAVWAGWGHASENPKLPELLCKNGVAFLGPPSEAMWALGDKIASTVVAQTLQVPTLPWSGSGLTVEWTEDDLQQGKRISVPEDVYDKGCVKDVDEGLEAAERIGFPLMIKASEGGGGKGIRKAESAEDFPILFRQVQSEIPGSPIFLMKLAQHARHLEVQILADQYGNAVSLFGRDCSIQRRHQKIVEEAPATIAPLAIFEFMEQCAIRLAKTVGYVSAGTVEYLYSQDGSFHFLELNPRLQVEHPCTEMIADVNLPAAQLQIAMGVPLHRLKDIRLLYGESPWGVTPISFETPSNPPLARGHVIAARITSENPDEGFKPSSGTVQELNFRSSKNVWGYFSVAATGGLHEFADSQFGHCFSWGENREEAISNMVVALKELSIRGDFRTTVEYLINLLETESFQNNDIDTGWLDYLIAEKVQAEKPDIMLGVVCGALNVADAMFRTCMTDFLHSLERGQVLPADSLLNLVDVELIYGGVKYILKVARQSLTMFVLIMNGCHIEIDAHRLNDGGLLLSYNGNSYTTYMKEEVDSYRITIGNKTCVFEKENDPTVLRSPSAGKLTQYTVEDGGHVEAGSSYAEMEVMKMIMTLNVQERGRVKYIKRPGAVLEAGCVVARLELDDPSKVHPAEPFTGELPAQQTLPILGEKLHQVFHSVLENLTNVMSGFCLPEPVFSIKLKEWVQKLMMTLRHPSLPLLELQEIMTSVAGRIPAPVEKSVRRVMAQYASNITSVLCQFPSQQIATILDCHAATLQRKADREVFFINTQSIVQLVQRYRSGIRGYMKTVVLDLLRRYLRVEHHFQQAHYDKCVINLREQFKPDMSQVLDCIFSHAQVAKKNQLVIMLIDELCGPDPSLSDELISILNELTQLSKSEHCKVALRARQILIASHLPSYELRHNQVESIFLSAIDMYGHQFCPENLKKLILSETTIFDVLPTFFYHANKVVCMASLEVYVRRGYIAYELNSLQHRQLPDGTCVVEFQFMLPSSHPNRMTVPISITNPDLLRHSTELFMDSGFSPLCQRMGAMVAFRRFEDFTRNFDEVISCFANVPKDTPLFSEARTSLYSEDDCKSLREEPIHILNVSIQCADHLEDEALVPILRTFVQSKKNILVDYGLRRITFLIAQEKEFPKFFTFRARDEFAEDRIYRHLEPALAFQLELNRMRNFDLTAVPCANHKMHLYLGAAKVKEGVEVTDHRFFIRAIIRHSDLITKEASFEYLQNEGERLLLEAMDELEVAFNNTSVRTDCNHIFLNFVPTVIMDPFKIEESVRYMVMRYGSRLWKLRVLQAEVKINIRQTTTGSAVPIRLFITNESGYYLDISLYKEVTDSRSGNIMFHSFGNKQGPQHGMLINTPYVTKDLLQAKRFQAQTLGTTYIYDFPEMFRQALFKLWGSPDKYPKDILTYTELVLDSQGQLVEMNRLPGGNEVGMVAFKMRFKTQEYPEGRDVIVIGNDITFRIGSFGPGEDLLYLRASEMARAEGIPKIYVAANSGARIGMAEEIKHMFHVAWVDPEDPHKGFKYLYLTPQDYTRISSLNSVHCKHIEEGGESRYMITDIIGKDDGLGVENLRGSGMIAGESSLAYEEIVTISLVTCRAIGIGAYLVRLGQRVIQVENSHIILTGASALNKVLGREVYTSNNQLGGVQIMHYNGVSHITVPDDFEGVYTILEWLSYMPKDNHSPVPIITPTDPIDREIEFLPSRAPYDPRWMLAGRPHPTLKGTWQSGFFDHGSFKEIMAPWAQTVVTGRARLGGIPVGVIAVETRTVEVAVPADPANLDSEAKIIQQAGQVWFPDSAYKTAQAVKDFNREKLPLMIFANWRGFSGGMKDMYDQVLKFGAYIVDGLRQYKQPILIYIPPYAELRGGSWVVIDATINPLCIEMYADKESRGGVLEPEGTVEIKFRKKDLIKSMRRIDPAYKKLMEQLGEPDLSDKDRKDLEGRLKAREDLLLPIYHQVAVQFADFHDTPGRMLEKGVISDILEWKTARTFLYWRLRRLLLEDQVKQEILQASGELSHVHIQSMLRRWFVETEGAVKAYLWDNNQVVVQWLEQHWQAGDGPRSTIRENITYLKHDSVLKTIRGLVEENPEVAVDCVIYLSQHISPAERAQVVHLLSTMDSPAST

For the compound `CCOC(=O)c1sc2c(c1C)c(=O)n(CCS(C)(=O)=O)c(=O)n2CCc1ccccc1` [I-52], the IC50 on ACC2 and on ACC1 was more than 50 µM in each case.

On to `CCOc1ccccc1CCn1c(=O)n(C(C)(C)C(N)=O)c(=O)c2c(C)c(-c3ncco3)sc21` [I-139, 2-[1-[2-(2-ethoxyphenyl)ethyl]-5-methyl-6-(1,3-oxazol-2-yl)-2,4-dioxo-1H,2H,3H,4H-thieno[2,3-d]pyrimidin-3-yl]-2-methylpropanamide], for which the IC50 at ACC2 and at ACC1 was less than 1 µM in each case.

As to `COc1ccccc1[C@H](Cn1c(=O)n(C(C)(C)C(N)=O)c(=O)c2c(C)c(-c3ncco3)sc21)O[C@H]1CC[C@@H](O)CC1` [I-279, 2-[1-[(2R)-2-[(4-hydroxycyclohexyl)oxy]-2-(2-methoxyphenyl)ethyl]-5-methyl-6-(1,3-oxazol-2-yl)-2,4-dioxo-1H,2H,3H,4H-thieno[2,3-d]pyrimidin-3-yl]-2-methylpropanamide], the IC50 on ACC2 and on ACC1 was less than 0.1 µM throughout.

Consider `CCCc1ccccc1CCn1c(=O)n(C(C)(C)C(=O)O)c(=O)c2c(C)c(-c3ncco3)sc21` [I-147, 2-methyl-2-[5-methyl-6-(1,3-oxazol-2-yl)-2,4-dioxo-1-[2-(2-propylphenyl)ethyl]-1H,2H,3H,4H-thieno[2,3-d]pyrimidin-3-yl]propanoic acid], for which the IC50 on ACC2 and at ACC1 was less than 1 µM each time.

As for `Cc1c(-c2ncco2)sc2c1c(=O)n(C(C)(C)C(N)=O)c(=O)n2C[C@H](OC1CCOCC1)c1ccccc1OC(C)C` [I-292, 2-methyl-2-[5-methyl-1-[(2R)-2-(oxan-4-yloxy)-2-[2-(propan-2-yloxy)phenyl]ethyl]-6-(1,3-oxazol-2-yl)-2,4-dioxo-1H,2H,3H,4H-thieno[2,3-d]pyrimidin-3-yl]propanamide], the IC50 at ACC2 and at ACC1 was less than 0.1 µM throughout.

Consider `Cc1c(-c2ncco2)sc2c1c(=O)n(C(C)(C)C(=O)O)c(=O)n2C[C@H](OC[C@@H](C)O)c1ccccc1` [I-179, 2-[1-[(2R)-2-[(2R)-2-hydroxypropoxy]-2-phenylethyl]-5-methyl-6-(1,3-oxazol-2-yl)-2,4-dioxo-1H,2H,3H,4H-thieno[2,3-d]pyrimidin-3-yl]-2-methylpropanoic acid], for which the IC50 at ACC2 and on ACC1 was less than 0.1 µM throughout.

As to `CCOC(=O)c1sc2c(c1C)c(=O)n(C(C)(C)C(=O)O)c(=O)n2CCc1ccccc1` [I-70, 2-[6-(ethoxycarbonyl)-5-methyl-2,4-dioxo-1-(2-phenylethyl)-1H,2H,3H,4H-thieno[2,3-d]pyrimidin-3-yl]-2-methylpropanoic acid], the IC50 on ACC2 and on ACC1 was less than 1 µM in each case.

As for `COc1ccccc1[C@H](Cn1c(=O)n(C(C)(C)C(=O)N2CCCC2)c(=O)c2c(C)c(-c3ncco3)sc21)OC(C)C` [I-238, 1-[(2R)-2-(2-methoxyphenyl)-2-(propan-2-yloxy)ethyl]-5-methyl-3-[2-methyl-1-oxo-1-(pyrrolidin-1-yl)propan-2-yl]-6-(1,3-oxazol-2-yl)-1H,2H,3H,4H-thieno[2,3-d]pyrimidine-2,4-dione], the IC50 on ACC2 and on ACC1 was less than 0.1 µM each time.

`CCOC(=O)c1sc2c(c1C)c(=O)n(CC(=O)O)c(=O)n2CCc1c(F)cccc1F` [I-33, 2-[1-[2-(2,6-difluorophenyl)ethyl]-6-(ethoxycarbonyl)-5-methyl-2,4-dioxo-1H,2H,3H,4H-thieno[2,3-d]pyrimidin-3-yl]acetic acid]: the IC50 at ACC2 and on ACC1 was 5 to 20 µM in each case.

Turning to `Cc1c(-c2ncco2)sc2c1c(=O)n(C(C)(C)C(N)=O)c(=O)n2C[C@H](OC(C)C)c1ccccc1OC(F)F` [I-268, 2-[1-[(2R)-2-[2-(difluoromethoxy)phenyl]-2-(propan-2-yloxy)ethyl]-5-methyl-6-(1,3-oxazol-2-yl)-2,4-dioxo-1H,2H,3H,4H-thieno[2,3-d]pyrimidin-3-yl]-2-methylpropanamide], the IC50 at ACC2 and on ACC1 was less than 0.1 µM throughout.

Turning to `CCOC(=O)c1sc2c(c1C)c(=O)n(CCC(=O)O)c(=O)n2CCc1ccccc1` [I-46, 3-[6-(ethoxycarbonyl)-5-methyl-2,4-dioxo-1-(2-phenylethyl)-1H,2H,3H,4H-thieno[2,3-d]pyrimidin-3-yl]propanoic acid], the IC50 at ACC2 and on ACC1 was less than 5 µM each time.

Regarding `CCc1ccccc1[C@H](Cn1c(=O)n(C(C)(C)C(=O)O)c(=O)c2c(C)c(-c3ncco3)sc21)O[C@H]1CC[C@H](O)CC1` [I-244, 2-(1-((R)-2-(2-ethylphenyl)-2-(((1r,4R)-4-hydroxycyclohexyl)oxy)ethyl)-5-methyl-6-(oxazol-2-yl)-2,4-dioxo-1,2-dihydrothieno[2,3-d]pyrimidin-3(4H)-yl)-2-methylpropanoic acid], the IC50 on ACC2 and at ACC1 was less than 0.1 µM in each case.

For the compound `CCO[C@@H](Cn1c(=O)n(C(C)(C)C(=O)O)c(=O)c2c(C)c(-c3ncco3)sc21)c1ccccc1OC` [I-243, 2-[1-[(2R)-2-ethoxy-2-(2-methoxyphenyl)ethyl]-5-methyl-6-(1,3-oxazol-2-yl)-2,4-dioxo-1H,2H,3H,4H-thieno[2,3-d]pyrimidin-3-yl]-2-methylpropanoic acid], the IC50 at ACC2 and at ACC1 was less than 0.1 µM throughout.

On to `COc1ccccc1[C@H](Cn1c(=O)n(Cc2nnc[nH]2)c(=O)c2c(C)c(-c3ncco3)sc21)OC1CCOCC1` [I-289, 1-[(2R)-2-(2-methoxyphenyl)-2-(oxan-4-yloxy)ethyl]-5-methyl-6-(1,3-oxazol-2-yl)-3-(4H-1,2,4-triazol-3-ylmethyl)-1H,2H,3H,4H-thieno[2,3-d]pyrimidine-2,4-dione], for which the IC50 at ACC2 and on ACC1 was less than 0.1 µM in each case.

Regarding `Cc1c(-c2ncco2)sc2c1c(=O)n(C(C)(C)C(=O)O)c(=O)n2C[C@H](OC(C)C)c1ccccc1OC(F)F` [I-267, 2-[1-[(2R)-2-[2-(difluoromethoxy)phenyl]-2-(propan-2-yloxy)ethyl]-5-methyl-6-(1,3-oxazol-2-yl)-2,4-dioxo-1H,2H,3H,4H-thieno[2,3-d]pyrimidin-3-yl]-2-methylpropanoic acid], the IC50 on ACC2 and on ACC1 was less than 0.1 µM throughout.

For the compound `CCc1ccccc1[C@H](Cn1c(=O)n(C(C)(C)C(=O)O)c(=O)c2c(C)c(-c3ncco3)sc21)OC1CCOCC1` [I-249, 2-[1-[(2R)-2-(2-ethylphenyl)-2-(oxan-4-yloxy)ethyl]-5-methyl-6-(1,3-oxazol-2-yl)-2,4-dioxo-1H,2H,3H,4H-thieno[2,3-d]pyrimidin-3-yl]-2-methylpropanoic acid], the IC50 on ACC2 and at ACC1 was less than 0.1 µM in each case.

Take `Cc1c(-c2ncco2)sc2c1c(=O)n(C(C)(C)C(N)=O)c(=O)n2C[C@H](OC1CCOCC1)c1ccccc1OC(F)F` [I-274, 2-[1-[(2R)-2-[2-(difluoromethoxy)phenyl]-2-(oxan-4-yloxy)ethyl]-5-methyl-6-(1,3-oxazol-2-yl)-2,4-dioxo-1H,2H,3H,4H-thieno[2,3-d]pyrimidin-3-yl]-2-methylpropanamide]: the IC50 on ACC2 and on ACC1 was less than 0.1 µM each time.

For the compound `CCc1ccccc1[C@H](Cn1c(=O)n(C(C)(C)C(=O)O)c(=O)c2c(C)c(-c3ncco3)sc21)O[C@H]1CC[C@@H](O)CC1` [I-245, 2-(1-((R)-2-(2-ethylphenyl)-2-(((1s,4S)-4-hydroxycyclohexyl)oxy)ethyl)-5-methyl-6-(oxazol-2-yl)-2,4-dioxo-1,2-dihydrothieno[2,3-d]pyrimidin-3(4H)-yl)-2-methylpropanoic acid], the IC50 at ACC2 and on ACC1 was less than 0.1 µM in each case.

With `CCOC(=O)c1sc2c(c1C)c(=O)n(CC(=O)O)c(=O)n2CC(OC(C)C)c1ccccc1` (stereo not drawn) [I-89, 2-[6-(ethoxycarbonyl)-5-methyl-2,4-dioxo-1-[2-phenyl-2-(propan-2-yloxy)ethyl]-1H,2H,3H,4H-thieno[2,3-d]pyrimidin-3-yl]acetic acid], the IC50 at ACC2 and on ACC1 was less than 1 µM throughout.

As to `COc1ccccc1[C@H](Cn1c(=O)n(C(C)(C)C(=O)O)c(=O)c2c(C)c(-c3ncco3)sc21)OCCO` [I-254, 2-[1-[(2R)-2-(2-hydroxyethoxy)-2-(2-methoxyphenyl)ethyl]-5-methyl-6-(1,3-oxazol-2-yl)-2,4-dioxo-1H,2H,3H,4H-thieno[2,3-d]pyrimidin-3-yl]-2-methylpropanoic acid], the IC50 on ACC2 and on ACC1 was less than 0.1 µM in each case.

Take `COc1ccccc1[C@H](Cn1c(=O)n(C(C)(C)C(=O)N2CCCCC2)c(=O)c2c(C)c(-c3ncco3)sc21)OC(C)C` [I-239, 1-[(2R)-2-(2-methoxyphenyl)-2-(propan-2-yloxy)ethyl]-5-methyl-3-[2-methyl-1-oxo-1-(piperidin-1-yl)propan-2-yl]-6-(1,3-oxazol-2-yl)-1H,2H,3H,4H-thieno[2,3-d]pyrimidine-2,4-dione]: the IC50 on ACC2 and on ACC1 was less than 0.1 µM each time.

`CCOC(=O)c1sc2c(c1C)c(=O)n(C(C)(C)C(=O)O)c(=O)n2C[C@H](OC)c1ccccc1` [I-110, 2-[6-(ethoxycarbonyl)-1-[(2R)-2-methoxy-2-phenylethyl]-5-methyl-2,4-dioxo-1H,2H,3H,4H-thieno[2,3-d]pyrimidin-3-yl]-2-methylpropanoic acid]: the IC50 at ACC2 and at ACC1 was less than 1 µM throughout.

Regarding `COc1ccccc1[C@H](Cn1c(=O)n(CC(N)=O)c(=O)c2c(C)c(-c3ncco3)sc21)OC1CCOCC1` [I-288], the IC50 on ACC2 and at ACC1 was less than 0.1 µM each time.

Take `Cc1c(-c2ncco2)sc2c1c(=O)n(C(C)(C)C(=O)O)c(=O)n2C[C@H](OC(C)C)c1ccccc1` [I-119, 2-methyl-2-[5-methyl-6-(1,3-oxazol-2-yl)-2,4-doxo-1-[(2R)-2-phenyl-2-(propan-2-yloxy)ethyl]-1H,2H,3H,4H-thieno[2,3-d]pyrimidin-3-yl]propanoic acid]: the IC50 was less than 1 µM on ACC2 and less than 0.1 µM on ACC1.

(Values after patent publication US9453026B2, “ACC inhibitors and uses thereof” (Gilead Apollo, Inc., priority 2011, dated 2016).)
